Experimental data: ChEMBL document CHEMBL5724914, “Linking interpersonal differences in gut microbiota composition and drug biotransformation activity” (2024)

What was measured:
[1] = human gut metagenome, 24 h, 2 µM
[2] = human gut metagenome, 24 h, 2 µM; remark: listed apart in the source
[3] = human gut metagenome, 24 h, 2 µM; remark: listed apart in the source
[4] = (§1) The drug is tested on Z-006 corresponding to mouse gut metagenome with ENA study accession number: PRJEB37062 and ENA sample accession number: ERS12561806 for biotransformation under anaerobic condition. The drug concentrations were measured over 9 timepoints collected between 0 and 24 hours of incubation by liquid-chromatography-coupled mass spectrometry (LC–MS); details: 2 µM
[5] = as §1, with “WLS-098” for “Z-006”, “human” for “mouse”, “ERS12561754” for “ERS12561806”; details: 2 µM
[6] = as §1, with “WLS-010” for “Z-006”, “human” for “mouse”, “ERS12561743” for “ERS12561806”; details: 2 µM
[7] = as §1, with “Z-025” for “Z-006”, “rabbit” for “mouse”, “ERS12561824” for “ERS12561806”; details: 2 µM
[8] = as §1, with “WLS-006” for “Z-006”, “human” for “mouse”, “ERS12561741” for “ERS12561806”; details: 2 µM
[9] = human gut metagenome, 24 h, 2 µM; remark: listed apart in the source
[10] = human gut metagenome, 24 h, 2 µM; remark: listed apart in the source
[11] = as §1, with “WLS-069” for “Z-006”, “human” for “mouse”, “ERS12561748” for “ERS12561806”; details: 2 µM
[12] = human gut metagenome, 24 h, 2 µM; remark: listed apart in the source
[13] = human gut metagenome, 24 h, 2 µM; remark: listed apart in the source
[14] = as §1, with “Z-028” for “Z-006”, “ERS12561827” for “ERS12561806”; details: 2 µM
[15] = human gut metagenome, 24 h, 2 µM; remark: listed apart in the source
[16] = as §1, with “Z-003” for “Z-006”, “pig” for “mouse”, “ERS12561803” for “ERS12561806”; details: 2 µM
[17] = as §1, with “Z-020” for “Z-006”, “rabbit” for “mouse”, “ERS12561819” for “ERS12561806”; details: 2 µM
[18] = as §1, with “Z-021” for “Z-006”, “to” for “to mouse gut”, “ERS12561820” for “ERS12561806”; details: 2 µM
[19] = as §1, with “Z-013” for “Z-006”, “rabbit” for “mouse”, “ERS12561813” for “ERS12561806”; details: 2 µM
[20] = human gut metagenome, 24 h, 2 µM; remark: listed apart in the source
Also: call rule not given here.

Row | SMILES | Bacterial Biotransformation [1] | Bacterial Biotransformation [2] | Bacterial Biotransformation [3] | Bacterial Biotransformation [4] | Bacterial Biotransformation [5] | Bacterial Biotransformation [6] | Bacterial Biotransformation [7] | Bacterial Biotransformation [8] | Bacterial Biotransformation [9] | Bacterial Biotransformation [10] | Bacterial Biotransformation [11] | Bacterial Biotransformation [12] | Bacterial Biotransformation [13] | Bacterial Biotransformation [14] | Bacterial Biotransformation [15] | Bacterial Biotransformation [16] | Bacterial Biotransformation [17] | Bacterial Biotransformation [18] | Bacterial Biotransformation [19] | Bacterial Biotransformation [20]
1 | CCCCc1nc(Cl)c(CO)n1Cc1ccc(-c2ccccc2-c2nn[nH]n2)cc1 [LOSARTAN] | Compound metabolized | Compound metabolized | Compound metabolized | Compound NOT metabolized | Compound metabolized | Compound metabolized | Compound NOT metabolized | Compound metabolized | Compound metabolized | Compound metabolized | Compound metabolized | Compound NOT metabolized | Compound metabolized | Compound NOT metabolized | Compound metabolized | Compound NOT metabolized | Compound NOT metabolized | Compound NOT metabolized | Compound NOT metabolized | Compound metabolized
2 | COC(=O)Nc1nc2ccc(C(=O)c3ccccc3)cc2[nH]1 [MEBENDAZOLE] | Compound NOT metabolized | Compound metabolized | Compound metabolized | Compound metabolized | Compound metabolized | Compound metabolized | Compound metabolized | Compound metabolized | Compound NOT metabolized | Compound NOT metabolized | Compound metabolized | Compound metabolized | Compound metabolized | Compound NOT metabolized | Compound metabolized | Compound metabolized | Compound metabolized | Compound metabolized | Compound metabolized | Compound metabolized
3 | COc1ccccc1OCC(O)COC(N)=O (stereo not given) [METHOCARBAMOL] | Compound NOT metabolized | Compound NOT metabolized | Compound NOT metabolized | Compound NOT metabolized | Compound NOT metabolized | Compound NOT metabolized | Compound NOT metabolized | Compound NOT metabolized | Compound NOT metabolized | Compound NOT metabolized | Compound NOT metabolized | Compound NOT metabolized | Compound NOT metabolized | Compound NOT metabolized | Compound NOT metabolized | Compound NOT metabolized | Compound NOT metabolized | Compound NOT metabolized | Compound NOT metabolized | Compound NOT metabolized
4 | CC[C@@H](CO)NC(=O)[C@@H]1C=C2c3cccc4c3c(cn4C)C[C@H]2N(C)C1.O=C(O)/C=C\C(=O)O [METHYSERGIDE MALEATE] | Compound NOT metabolized | Compound NOT metabolized | Compound NOT metabolized | Compound NOT metabolized | Compound NOT metabolized | Compound NOT metabolized | Compound NOT metabolized | Compound NOT metabolized | Compound NOT metabolized | Compound NOT metabolized | Compound NOT metabolized | Compound NOT metabolized | Compound NOT metabolized | Compound NOT metabolized | Compound NOT metabolized | Compound NOT metabolized | Compound NOT metabolized | Compound NOT metabolized | Compound NOT metabolized | Compound NOT metabolized
5 | CCN(CC)CCNC(=O)c1cc(Cl)c(N)cc1OC [METOCLOPRAMIDE] | Compound NOT metabolized | Compound NOT metabolized | Compound NOT metabolized | Compound NOT metabolized | Compound NOT metabolized | Compound NOT metabolized | Compound NOT metabolized | Compound NOT metabolized | Compound NOT metabolized | Compound NOT metabolized | Compound NOT metabolized | Compound NOT metabolized | Compound NOT metabolized | Compound NOT metabolized | Compound NOT metabolized | Compound NOT metabolized | Compound NOT metabolized | Compound NOT metabolized | Compound NOT metabolized | Compound NOT metabolized
6 | Cc1ccccc1N1C(=O)c2cc(S(N)(=O)=O)c(Cl)cc2NC1C (stereo not given) [METOLAZONE] | Compound NOT metabolized | Compound NOT metabolized | Compound NOT metabolized | Compound NOT metabolized | Compound metabolized | Compound NOT metabolized | Compound metabolized | Compound NOT metabolized | Compound metabolized | Compound metabolized | Compound NOT metabolized | Compound NOT metabolized | Compound metabolized | Compound NOT metabolized | Compound NOT metabolized | Compound NOT metabolized | Compound NOT metabolized | Compound NOT metabolized | Compound NOT metabolized | Compound NOT metabolized
7 | COCCc1ccc(OCC(O)CNC(C)C)cc1.COCCc1ccc(OCC(O)CNC(C)C)cc1.O=C(O)C(O)C(O)C(=O)O (stereo not given) [METOPROLOL TARTRATE] | Compound NOT metabolized | Compound metabolized | Compound NOT metabolized | Compound NOT metabolized | Compound metabolized | Compound NOT metabolized | Compound metabolized | Compound NOT metabolized | Compound metabolized | Compound metabolized | Compound NOT metabolized | Compound metabolized | Compound metabolized | Compound NOT metabolized | Compound NOT metabolized | Compound metabolized | Compound NOT metabolized | Compound NOT metabolized | Compound NOT metabolized | Compound NOT metabolized
